Molecular target: T1, His6-SCO4439 (Streptomyces coelicolor, UniProt Q9KZY7)
T1 construct: whole SCO4439 gene with N-terminal His6 tag in pET11a (pBRB7), expressed in E. coli JM109 (DE3), HisTrap purified, tag kept; native protein 84 kDa; tag followed by VARED (from primer BRB7F)
Test: D-Ala release, D-amino acid oxidase-peroxidase coupled colorimetric assay
Type: biochemical

T1 sequence (Q9KZY7 entry or part of it): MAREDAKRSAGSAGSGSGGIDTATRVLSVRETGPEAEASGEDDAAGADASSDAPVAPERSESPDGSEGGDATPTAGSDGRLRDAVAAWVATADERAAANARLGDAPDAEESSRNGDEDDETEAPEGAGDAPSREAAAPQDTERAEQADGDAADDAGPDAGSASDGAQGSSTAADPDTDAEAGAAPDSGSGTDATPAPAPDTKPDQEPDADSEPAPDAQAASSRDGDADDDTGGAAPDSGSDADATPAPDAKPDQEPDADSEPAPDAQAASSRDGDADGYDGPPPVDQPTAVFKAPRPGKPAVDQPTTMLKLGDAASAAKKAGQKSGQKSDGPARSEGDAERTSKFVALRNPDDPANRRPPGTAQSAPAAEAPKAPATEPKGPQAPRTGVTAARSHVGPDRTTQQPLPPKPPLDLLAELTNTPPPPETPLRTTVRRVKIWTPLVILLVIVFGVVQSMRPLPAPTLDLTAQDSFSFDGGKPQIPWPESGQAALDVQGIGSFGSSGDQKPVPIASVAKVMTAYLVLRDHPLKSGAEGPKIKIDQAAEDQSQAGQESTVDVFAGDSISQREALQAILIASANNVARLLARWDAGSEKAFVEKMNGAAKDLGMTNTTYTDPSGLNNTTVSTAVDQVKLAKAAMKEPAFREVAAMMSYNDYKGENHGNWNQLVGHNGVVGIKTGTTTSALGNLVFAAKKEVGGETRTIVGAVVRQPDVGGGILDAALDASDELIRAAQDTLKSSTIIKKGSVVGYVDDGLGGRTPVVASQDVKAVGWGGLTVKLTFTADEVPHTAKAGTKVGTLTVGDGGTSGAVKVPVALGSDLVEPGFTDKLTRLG

CC1(C)S[C@@H]2[C@H](NC(=O)Cc3ccccc3)C(=O)N2[C@H]1C(=O)O [penicillin G]
IC50: 1000 µM
